We go through five compounds from ChEMBL document CHEMBL4196012 (Eur J Med Chem, 2018).

The test system of assay [1] is Staphylococcus aureus. In words: Potency index, ratio of ciprofloxacin MIC to compound MIC for antibacterial activity against vancomycin-insensitive Staphylococcus aureus. The format is functional.
The test system of assay [2] is Staphylococcus aureus. Nature of the assay: Antibacterial activity against Staphylococcus aureus ATCC 29213 after 16 to 20 hrs by NCCLS microdilution method. The format is functional. On the technique in general: In broth dilution the organism is exposed to a series of concentrations in liquid medium.
The subject of assay [3] is Staphylococcus aureus. Nature of the assay: Antibacterial activity against linezolid-resistant Staphylococcus aureus after 16 to 20 hrs by NCCLS microdilution method. It is filed as functional.
Assay [4] deals with Streptococcus pneumoniae. Nature of the assay: Antibacterial activity against quinolone-resistant Streptococcus pneumoniae after 16 to 20 hrs by NCCLS microdilution method. The format is functional.
Assay [5] concerns Escherichia coli. In words: Antibacterial activity against Escherichia coli ATCC 25922 after 16 to 20 hrs by NCCLS microdilution method. The format is functional.
The test system of the next assay is Enterococcus faecium. In words: Antibacterial activity against vancomycin and quinolone-resistant Enterococcus faecium after 16 to 20 hrs by NCCLS microdilution method. It is filed as functional.
Assay [6] concerns Streptococcus pneumoniae. In words: Antibacterial activity against Streptococcus pneumoniae ATCC 49619 after 16 to 20 hrs by NCCLS microdilution method. It is filed as functional.
Assay [7] has as its system Enterococcus faecalis. Nature of the assay: Antibacterial activity against linezolid-resistant Enterococcus faecalis after 16 to 20 hrs by NCCLS microdilution method. It is filed as functional.
Assay [8] concerns Enterococcus faecalis. In words: Antibacterial activity against Enterococcus faecalis ATCC 29212 after 16 to 20 hrs by NCCLS microdilution method. It is filed as functional.
In the next assay the test system is Moraxella catarrhalis. In words: Antibacterial activity against Moraxella catarrhalis ATCC 8176 after 16 to 20 hrs by NCCLS microdilution method. It is filed as functional.
The test system of a further assay is Haemophilus influenzae. In words: Antibacterial activity against Haemophilus influenzae 11 after 16 to 20 hrs by NCCLS microdilution method. It is filed as functional.
For assay [9], the system named is Staphylococcus aureus. Nature of the assay: Antibacterial activity against quinolone-resistant Staphylococcus aureus after 16 to 20 hrs by NCCLS microdilution method. The format is functional.
The test system of assay [10] is Pseudomonas aeruginosa. Nature of the assay: Potency index, ratio of ciprofloxacin MIC to compound MIC for antibacterial activity against Pseudomonas aeruginosa. The format is functional.
The test system of assay [11] is Escherichia coli. In words: Antibacterial activity against Escherichia coli after 24 hrs by agar streak dilution method. It is filed as functional.
Assay [12] deals with Escherichia coli. Nature of the assay: Potency index, ratio of ciprofloxacin MIC to compound MIC for antibacterial activity against Escherichia coli. The format is functional.
Assay [13] deals with Pseudomonas aeruginosa. In words: Antibacterial activity against Pseudomonas aeruginosa after 24 hrs by agar streak dilution method. The format is functional.
The subject of assay [14] is Staphylococcus aureus. Nature of the assay: Antibacterial activity against Staphylococcus aureus ATCC 6538p after 18 hrs by agar dilution method. It is filed as functional.
Assay [15] concerns Staphylococcus aureus. Nature of the assay: Antibacterial activity against methicillin-resistant Staphylococcus aureus isolate 2 after 18 hrs by agar dilution method. It is filed as functional. The following applies: isolate 2, 18 h.
The test system of assay [16] is Staphylococcus epidermidis. Nature of the assay: Antibacterial activity against Staphylococcus epidermidis ATCC 12228 after 18 hrs by agar dilution method. It is filed as functional. The settings on record: ATCC 12228, 18 h. On the technique in general: Agar dilution tests growth on a series of plates holding different concentrations.
The test system of assay [17] is Escherichia coli. In words: Antibacterial activity against Escherichia coli ATCC 8739 after 18 hrs by agar dilution method. It is filed as functional. The following applies: ATCC 8739, 18 h.
The subject of the next assay is Klebsiella pneumoniae. In words: Antibacterial activity against Klebsiella pneumoniae ATCC 10031 after 18 hrs by agar dilution method. The settings on record: ATCC 10031, 18 h. The format is functional.
Assay [18] deals with Staphylococcus aureus. Nature of the assay: Antibacterial activity against methicillin-resistant Staphylococcus aureus isolate 1 after 18 hrs by agar dilution method. The format is functional. The settings on record: isolate 1, 18 h.
The subject of another assay is Bacillus spizizenii. Nature of the assay: Antibacterial activity against Bacillus subtilis ATCC 6633 after 18 hrs by agar dilution method. The following applies: ATCC 6633, 18 h. The format is functional.
Assay [19] has as its system Pseudomonas aeruginosa. In words: Antibacterial activity against Pseudomonas aeruginosa ATCC 9027 after 18 hrs by agar dilution method. It is filed as functional. The following applies: ATCC 9027, 18 h.
Assay [20] relates to Staphylococcus aureus. In words: Antibacterial activity against Staphylococcus aureus ATCC 6538P by agar dilution method. The format is functional.
Assay [21] relates to Escherichia coli. Nature of the assay: microbe, parasite or virus in culture. The settings on record: NCTC 10419.
The test system of assay [22] is Staphylococcus epidermidis. Nature of the assay: Antibacterial activity against Staphylococcus epidermidis ATCC 12228 by agar dilution method. The format is functional.
The test system of a further assay is Bacillus subtilis. In words: Antibacterial activity against Bacillus subtilis PTCC 1023 by agar dilution method. The format is functional.
In assay [23] the test system is Escherichia coli. In words: In vivo antibacterial activity against Escherichia coli NCTC 10419 infected in po dosed mouse administered at 1 and 4 hrs post infection. The format is functional, organism-based.

Converted amounts (≈) assume the structure as drawn.

Turning to `CCn1cc(C(=O)O)c(=O)c2cnc(N3CCN(Cc4ccc(CN5CCN(c6cc7c(cc6F)c(=O)c(C(=O)O)cn7C6CC6)CC5)cc4)CC3)nc21`, the Ratio in the assay on Staphylococcus aureus [1] is on record as greater than 4.
Turning to `CC(=O)NC[C@H]1CN(c2ccc(N3CCN(c4cc5c(cc4F)c(=O)c(C(=O)O)cn5C4CC4)CC3)c(F)c2)C(=O)O1`, the MIC was in the range of 0.125 to 4 µg/mL (≈ 0.215 to 6.88 µM) against Staphylococcus aureus [2]; 0.125 to 4 µg/mL (≈ 0.215 to 6.88 µM) against Staphylococcus aureus [3]; 0.25 to 0.5 µg/mL (≈ 0.43 to 0.86 µM) against Streptococcus pneumoniae [4]; 0.125 to 4 µg/mL (≈ 0.215 to 6.88 µM) against Escherichia coli [5]; 0.25 to 0.5 µg/mL (≈ 0.43 to 0.86 µM) in the assay on Enterococcus faecium; 0.125 to 4 µg/mL (≈ 0.215 to 6.88 µM) in the assay with Streptococcus pneumoniae [6]. For the same compound, the MIC with Enterococcus faecalis [7] lay within 0.125 to 4 µg/mL (≈ 0.215 to 6.88 µM); against Enterococcus faecalis [8], 0.125 to 4 µg/mL (≈ 0.215 to 6.88 µM); in the assay on Moraxella catarrhalis it was 0.125 to 4 µg/mL (≈ 0.215 to 6.88 µM); with Haemophilus influenzae it was 0.125 to 4 µg/mL (≈ 0.215 to 6.88 µM); against Staphylococcus aureus [9], 0.25 to 0.5 µg/mL (≈ 0.43 to 0.86 µM).
Regarding `CCOc1ccc2nc(C3C(=O)CSC3N3CCN(c4cc5c(cc4F)c(=O)c(C(=O)O)cn5C4CC4)CC3)sc2c1` (configuration not stated), the Ratio in the assay on Pseudomonas aeruginosa [10] and with Escherichia coli [12] was 3 throughout. Further, the MIC against Escherichia coli [11] and in the assay on Pseudomonas aeruginosa [13] was 2 µg/mL (≈ 3.29 µM) each time.
In the case of `O=C(CN1CCN(c2cc3c(cc2F)c(=O)c(C(=O)O)cn3C2CC2)CC1)c1cc2ccccc2oc1=O`, the MIC (against Staphylococcus aureus [14]; against Staphylococcus aureus [15]; in assay [16]; against Escherichia coli [17]; in the assay with Klebsiella pneumoniae; against Staphylococcus aureus [18]) was 0.025 to 1.56 µg/mL (≈ 0.0483 to 3.01 µM) in each case. The MIC in the assay with Bacillus spizizenii and in the assay with Pseudomonas aeruginosa [19] was 0.025 to 1.56 µg/mL (≈ 0.0483 to 3.01 µM) in each case.
Take `O=C(O)c1cn(C2CC2)c2cc(N3CCNCC3)c(F)cc2c1=O` [CIPROFLOXACIN]: the MIC in the assay on Streptococcus pneumoniae [4] was no less than 32 µg/mL; in the assay on Staphylococcus aureus [20] it was 0.015 to 0.5 µg/mL (≈ 0.0453 to 1.51 µM); against Enterococcus faecium, no less than 32 µg/mL; in the assay with Escherichia coli [21], 1.1 nM (≈ 0.364 ng/mL); in assay [22], 0.015 to 0.5 µg/mL (≈ 0.0453 to 1.51 µM); with Bacillus subtilis it was 0.015 to 0.5 µg/mL (≈ 0.0453 to 1.51 µM). The compound further showed an MIC in the assay with Staphylococcus aureus [9] of no less than 32 µg/mL. In the assay on Escherichia coli [23], this compound displayed an EC50 of 1.25 mg/kg.
